This passage reports IC50 results from US20240239804A1, “FUROINDAZOLE DERIVATIVES AS ANTAGONISTS OR INHIBITORS OF GPR84” (Bayer Aktiengesellschaft, priority 2021, published 2024).

Structures can show the parent of a compound that is named as a salt.

This experiment addresses T1, human GPR84 receptor (Homo sapiens, UniProt Q9NQS5).
T1 construct: frozen aliquots prepared by acCELLerate; host or cells: CHO-K1
The experiment can be described thus: cAMP HTRF assay for identification of cellular GPR84 antagonists. It counts as cell-based. The conditions noted are these: CHO-K1 cells stably expressing human GPR84; Forskolin plus agonist 6-OAU; cAMP HTRF readout; average or median values. From the text:
cAMP HTRF® Assay for Identification of Cellular GPR84 Antagonists
By using a Homogenous Time-Resolved Fluorescence (HTRF®) based assay (#62AM5PEJ, Cisbio, Condolet, France) the inhibition of the Gi-coupled GPR84 receptor can be detected. CHO-K1 cells stably expressing human GPR84 receptor (purchased from DiscoveRx, now Eurofins) were used and treated with Forskolin (F6886, Sigma, Germany) to stimulate membrane adenylyl cyclases and thereby unspecific cAMP formation. Activation of the Gi-coupled GPR84 by a natural or small molecule agonist (e.g. 6-n-octyl aminouracile, inhouse) results in inhibition of cellular cAMP formation which can be released again by antagonists to this receptor. Detection and quantification of cellular cAMP levels in this HTRF assay is achieved by interaction between a fluorescent cAMP tracer (cAMP-d2) and an Eu-cryptate labelled anti-cAMP antibody. Following excitation at 337 nm this pairing allows for the generation of a fluorescence resonance energy transfer (FRET) between the partners and results in FRET induced emissions at 665 nm and 620 nm, the latter representing background signal by Eu-cryptate labelled anti-cAMP antibody. Maximal signal is obtained in the absence of any cellular cAMP (no competition for the binding of the tracer to the antibody). Given the combination of the Gi coupling properties of GPR84 and the competitive nature of the detection system agonist treatment should result in an increase in the HTRF signal due to lowered cAMP levels. Any signal decrease in the presence of Forskolin, agonist and compound are indicative of antagonist mediated abrogation of GPR84 signalling.
For the assay, frozen aliquots of CHO-K1 cells expressing hGPR84 (prepared by acCELLerate, Hamburg, Germany) were thawed and a cell suspension (1.67E+06 cells/mL) in assay media (Ham's F12 Nutrient Mix, Thermo Fisher Scientific, Waltham, USA; 5% fetal calf serum, Biomol, Hamburg, Germany) containing cAMP-d2 (dilution 1:20, supplied with the kit #62AM5PEJ, Cisbio, Condolet, France) was prepared. After recovery of cells for 20 minutes at 37° C., 3 μL/well cell suspension including cAMP-d2 were added to a pre-dispensed assay plate (Greiner Bio-One, Kremsmuenster, Austria) containing 50 nl/well test compound in 100% DMSO or 100% DMSO as control. This was followed by a 30 minute incubation step at room temperature. The stimulation time was started by addition of 2 μL/well assay media containing 2.5×EC80 agonist 6-OAU and 2.5×EC90 Forskolin (negative control: 2.5×EC90 Forskolin in assay media) and was continued for 30 minutes at room temperature. The reaction was stopped by addition of 3 μL/well lysis buffer containing cAMP Eu-Cryptate antibody (dilution 1:20) (both supplied with the kit #62AM5PEJ, Cisbio, Condolet, France). To enable complete lysis, plates were incubated for 60 minutes at room temperature before measurement in an HTRF reader, e.g. a PHERAstar (BMG Labtech, Ortenberg, Germany).
From the fluorescence emissions at 665 nm (FRET) and at 620 nm (background signal of Eu-cryptate) the ratio (emission at 665 nm divided by emission at 620 nm×10000) was calculated and the data were normalized (reaction without test compound, only 100% DMSO=0% inhibition; all other assay components except agonist=100% inhibition). For dose response testing on the same microtiter plate, compounds were tested at 11 different concentrations in the range of 20 μM to 0.07 nM (20 μM, 5.7 μM, 1.6 μM, 0.47 μM, 0.13 μM, 38 nM, 11 nM, 3.1 nM, 0.89 nM, 0.25 and 0.07 nM; dilution series prepared before the assay at the level of the 100-fold conc. stock solutions by serial 1:3.5 dilutions in 100% DMSO) in duplicate values for each concentration. IC50 values were calculated by 4-parameter fitting using a commercial software package (Genedata Screener, Basel, Switzerland).
Examples were tested in selected biological assays one or more times. […]

As usually defined, the IC50 is the concentration needed to halve the response being measured.

T1 sequence (Q9NQS5 whole entry): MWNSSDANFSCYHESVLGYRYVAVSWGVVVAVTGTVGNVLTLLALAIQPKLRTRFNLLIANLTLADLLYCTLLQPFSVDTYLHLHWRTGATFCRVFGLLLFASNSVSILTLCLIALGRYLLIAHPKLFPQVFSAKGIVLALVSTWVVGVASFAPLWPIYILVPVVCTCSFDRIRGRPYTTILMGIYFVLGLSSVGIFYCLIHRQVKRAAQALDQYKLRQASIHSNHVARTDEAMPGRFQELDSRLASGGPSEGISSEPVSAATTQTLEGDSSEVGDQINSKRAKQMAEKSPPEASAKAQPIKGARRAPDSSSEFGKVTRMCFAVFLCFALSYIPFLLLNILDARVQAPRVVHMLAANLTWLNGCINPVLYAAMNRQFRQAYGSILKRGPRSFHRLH

On to `Cc1c(C(=O)NC[C@@H]2CCCO2)oc2c1-c1nn(C(C)c3ccccc3F)cc1CC2` (mixture of isomers) [Example 95, 2-[(1RS)-1-(2-fluorophenyl)ethyl]-8-methyl-N-[(2S)-tetrahydrofuran-2-ylmethyl]-4,5-dihydro-2H-furo[2,3-g]indazole-7-carboxamide], for which the IC50 turned out to be 750 nM.
The result for `Cc1ccccc1Cn1cc2c(n1)-c1c(oc(C(=O)NCC3CCCN3C(=O)OC(C)(C)C)c1C)CC2` (racemic) [Example 6, tert-butyl (2RS)-2-[{{8-methyl-2-[(2-methylphenyl)methyl]-4,5-dihydro-2H-furo[2,3-g]indazole-7-carbonyl}amino)methyl]pyrrolidine-1-carboxylate] reads 2220 nM; that for `Cc1ccccc1Cn1cc2c(n1)-c1c(oc(C(=O)NCC3CCCN3)c1C)CC2` (racemic) [Example 7, 8-methyl-2-[(2-methylphenyl)methyl]-N-{[(2RS)-pyrrolidin-2-yl]methyl}-4,5-dihydro-2H-furo[2,3-g]indazole-7-carboxamide], 680 nM.
The result for `Cc1ccccc1Cn1cc2c(n1)-c1c(oc(C(=O)NCC3CCCN3)c1C)CC2` (racemic) [Example 7-3, 8-methyl-2-[(2-methylphenyl)methyl]-N-{[(2RS)-pyrrolidin-2-yl]methyl}-4,5-dihydro-2H-furo[2,3-g]indazole-7-carboxamide hydrochloride (1:1)] reads 1180 nM; that for `Cc1c(C(=O)NCC2CCCO2)oc2c1-c1nn(Cc3ccccc3Cl)cc1CC2` (racemic) [Example 9, 2-[(2-chlorophenyl)methyl]-8-methyl-N-[(2RS)-tetrahydrofuran-2-ylmethyl]-4,5-dihydro-2H-furo[2,3-g]indazole-7-carboxamide], 46 nM; that for `Cc1c(C(=O)NCC2CCCO2)oc2c1-c1nn(Cc3cccc(Cl)c3)cc1CC2` (racemic) [Example 15, 2-[(3-chlorophenyl)methyl]-8-methyl-N-[(2RS)-tetrahydrofuran-2-ylmethyl]-4,5-dihydro-2H-furo[2,3-g]indazole-7-carboxamide], 74 nM.
The same measure for `Cc1c(C(=O)NCC2CCCO2)oc2c1-c1nn(Cc3ccc(Cl)cc3)cc1CC2` (racemic) [Example 21, 2-[(4-chlorophenyl)methyl]-8-methyl-N-[(2RS)-tetrahydrofuran-2-ylmethyl]-4,5-dihydro-2H-furo[2,3-g]indazole-7-carboxamide]: 58 nM.
For `Cc1c(C(=O)NCC2CCCO2)oc2c1-c1nn(Cc3ccc(F)cc3Cl)cc1CC2` (racemic) [Example 92, 2-[(2-chloro-4-fluorophenyl)methyl]-8-methyl-N-[(2RS)-tetrahydrofuran-2-ylmethyl]-4,5-dihydro-2H-furo[2,3-g]indazole-7-carboxamide], the IC50 stood at 160 nM.
As for `Cc1ccccc1Cn1cc2c(n1)-c1c(oc(C(=O)NCC3CCCN3)c1C)CC2` (single isomer, unassigned) [Example 7-1], the IC50 stood at 720 nM.
The result for `Cc1ccccc1Cn1cc2c(n1)-c1c(oc(C(=O)NCC3CCCN3)c1C)CC2` (single isomer, unassigned) [Example 7-2] reads 630 nM; that for `Cc1c(C(=O)NCC2CCCO2)oc2c1-c1nn(Cc3cccc(Cl)c3)cc1CC2` (single isomer, unassigned) [Example 15-1], 88 nM.
The result for `Cc1c(C(=O)NCC2CCCO2)oc2c1-c1nn(Cc3cccc(Cl)c3)cc1CC2` (single isomer, unassigned) [Example 15-2] reads 550 nM.
The same measure for `Cc1c(C(=O)NCC2CCCO2)oc2c1-c1nn(Cc3ccc(Cl)cc3)cc1CC2` (single isomer, unassigned) [Example 21-1]: 520 nM.
Take `Cc1c(C(=O)NCC2CCCO2)oc2c1-c1nn(Cc3ccc(Cl)cc3)cc1CC2` (single isomer, unassigned) [Example 21-2]: the IC50 was determined as 89 nM.
The same measure for `Cc1ccc(Cn2cc3c(n2)-c2c(oc(C(=O)NC[C@@H]4CCCO4)c2C)CC3)cc1` [Example 1, 8-methyl-2-[(4-methylphenyl)methyl]-N-[(2S)-tetrahydrofuran-2-ylmethyl]-4,5-dihydro-2H-furo[2,3-g]indazole-7-carboxamide]: 18 nM.
The same measure for `Cc1ccc(Cn2cc3c(n2)-c2c(oc(C(=O)NC[C@@H]4COCCO4)c2C)CC3)cc1` [Example 2, N-{[(2R)-1,4-dioxan-2-yl]methyl}-8-methyl-2-[(4-methylphenyl)methyl]-4,5-dihydro-2H-furo[2,3-g]indazole-7-carboxamide]: 7 nM.
Turning to `Cc1ccc(Cn2cc3c(n2)-c2c(oc(C(=O)NCc4ccon4)c2C)CC3)cc1` [Example 3, 8-methyl-2-[(4-methylphenyl)methyl]-N-[(1,2-oxazol-3-yl)methyl]-4,5-dihydro-2H-furo[2,3-g]indazole-7-carboxamide], the IC50 is 140 nM.
The result for `Cc1ccccc1Cn1cc2c(n1)-c1c(oc(C(=O)NC[C@@H]3CCCO3)c1C)CC2` [Example 4, 8-methyl-2-[(2-methylphenyl)methyl]-N-[(2S)-tetrahydrofuran-2-ylmethyl]-4,5-dihydro-2H-furo[2,3-g]indazole-7-carboxamide] reads 23 nM.
The same measure for `Cc1ccccc1Cn1cc2c(n1)-c1c(oc(C(=O)NC[C@@H]3COCCO3)c1C)CC2` [Example 5, N-{[(2R)-1,4-dioxan-2-yl]methyl}-8-methyl-2-[(2-methylphenyl)methyl]-4,5-dihydro-2H-furo[2,3-g]indazole-7-carboxamide]: 9 nM; for `Cc1ccccc1Cn1cc2c(n1)-c1c(oc(C(=O)NCc3ccon3)c1C)CC2` [Example 8, 8-methyl-2-[(2-methylphenyl)methyl]-N-[(1,2-oxazol-3-yl)methyl]-4,5-dihydro-2H-furo[2,3-g]indazole-7-carboxamide]: 240 nM.
In the case of `Cc1ccc(CNC(=O)c2oc3c(c2C)-c2nn(Cc4ccccc4Cl)cc2CC3)cc1` [Example 10, 2-[(2-chlorophenyl)methyl]-8-methyl-N-[(4-methylphenyl)methyl]-4,5-dihydro-2H-furo[2,3-g]indazole-7-carboxamide], the IC50 turned out to be 42 nM.
In the case of `Cc1c(C(=O)NCCN2CCN(C)CC2)oc2c1-c1nn(Cc3ccccc3Cl)cc1CC2` [Example 11, 2-[(2-chlorophenyl)methyl]-8-methyl-N-[2-(4-methylpiperazin-1-yl)ethyl]-4,5-dihydro-2H-furo[2,3-g]indazole-7-carboxamide], the IC50 stood at 230 nM.
Consider `Cc1c(C(=O)NCCN2CCCC2)oc2c1-c1nn(Cc3ccccc3Cl)cc1CC2` [Example 12, 2-[(2-chlorophenyl)methyl]-8-methyl-N-[2-(pyrrolidin-1-yl)ethyl]-4,5-dihydro-2H-furo[2,3-g]indazole-7-carboxamide], for which the IC50 was 300 nM.
The same measure for `Cc1c(C(=O)NCCN2CCCCC2)oc2c1-c1nn(Cc3ccccc3Cl)cc1CC2` [Example 13, 2-[(2-chlorophenyl)methyl]-8-methyl-N-[2-(piperidin-1-yl)ethyl]-4,5-dihydro-2H-furo[2,3-g]indazole-7-carboxamide]: 360 nM; for `Cc1c(C(=O)NCCN2CCC2)oc2c1-c1nn(Cc3ccccc3Cl)cc1CC2` [Example 14, N-[2-(azetidin-1-yl)ethyl]-2-[(2-chlorophenyl)methyl]-8-methyl-4,5-dihydro-2H-furo[2,3-g]indazole-7-carboxamide]: 1150 nM.
